The target of this assay is T1, Androgen Receptor (Homo sapiens, UniProt P10275).
T1 construct: endogenous in cells; host or cells: VCaP cells
T1 sequence (P10275 1-920): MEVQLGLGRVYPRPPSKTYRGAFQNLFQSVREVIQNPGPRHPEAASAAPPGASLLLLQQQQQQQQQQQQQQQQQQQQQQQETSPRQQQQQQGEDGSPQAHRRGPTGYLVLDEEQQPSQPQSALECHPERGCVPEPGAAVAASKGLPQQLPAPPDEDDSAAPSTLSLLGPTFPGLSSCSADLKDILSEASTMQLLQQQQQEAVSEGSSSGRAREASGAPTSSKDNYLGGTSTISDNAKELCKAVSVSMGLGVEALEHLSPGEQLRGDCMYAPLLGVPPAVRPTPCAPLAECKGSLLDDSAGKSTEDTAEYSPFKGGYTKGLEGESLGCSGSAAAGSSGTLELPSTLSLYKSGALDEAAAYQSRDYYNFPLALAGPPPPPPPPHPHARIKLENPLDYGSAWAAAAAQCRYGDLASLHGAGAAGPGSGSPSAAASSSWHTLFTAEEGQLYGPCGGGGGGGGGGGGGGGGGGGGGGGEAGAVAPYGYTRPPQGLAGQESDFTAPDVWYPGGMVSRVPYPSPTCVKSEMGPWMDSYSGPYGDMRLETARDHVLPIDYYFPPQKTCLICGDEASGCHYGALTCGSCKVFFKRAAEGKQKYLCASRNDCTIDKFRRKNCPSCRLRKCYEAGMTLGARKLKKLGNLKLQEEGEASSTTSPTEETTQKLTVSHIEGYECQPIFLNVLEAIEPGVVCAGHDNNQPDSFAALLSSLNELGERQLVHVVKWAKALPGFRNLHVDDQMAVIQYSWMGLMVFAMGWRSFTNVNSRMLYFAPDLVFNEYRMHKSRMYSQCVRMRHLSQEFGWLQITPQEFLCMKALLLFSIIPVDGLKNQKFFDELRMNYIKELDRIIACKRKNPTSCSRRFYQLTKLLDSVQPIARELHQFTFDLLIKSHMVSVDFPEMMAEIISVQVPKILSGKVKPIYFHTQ
Briefly: Androgen Receptor ELISA assay (PathScan AR ELISA) in VCaP cells: AR degradation, Dmax and DC50. The format is cell-based. Particulars: for DC50: read-out: VCaP DC50; for Dmax: VCaP, read-out: VCaP Dmax (%). In outline: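 VCaP cells, 30,000/well, grown ≥3 days in phenol red-free RPMI with 5% charcoal-stripped FBS; compound added in 0.1% DMSO with 0.1 nM R1881, 7 half-log doses, 24 h. Lysate AR quantified by PathScan sandwich ELISA, HRP/TMB read at 450 nm, giving DC50 and Dmax.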
On the technique in general: An ELISA detects its analyte on a solid surface through an enzyme-linked reagent.

Read-outs that look alike come from different tables or passages of the source.

DC50 and Dmax data for five molecules are collected here from patent US11427548B2 (Arvinas Operations, Inc., priority 2015, dated 2022).

As to `Cc1ncsc1-c1ccc([C@H](C)NC(=O)[C@@H]2C[C@@H](O)CN2C(=O)[C@@H](NC(=O)COCCN2CCN(c3ccc(C(=O)N[C@H]4CC(Oc5ccc(C#N)c(Cl)c5)C4(C)C)cn3)CC2)C(C)(C)C)cc1` (stereo partly drawn) [Example 849, N-((1S)-3-(3-chloro-4-cyanophenoxy)-2,2-dimethylcyclobutyl)-6-(4-(2-(2-(((S)-1-((2S, 4R)-4-hydroxy-2-(((S)-1-(4-(4-methylthiazol-5-yl)phenyl)ethyl)carbamoyl)pyrrolidin-1-yl)-3,3-dimethyl-1-oxobutan-2-yl)amino)-2-oxoethoxy)ethyl)piperazin-1-yl)nicotinamide], under “VCaP cells, Table 36”, the DC50 was under 0.05 µM and the greatest degradation seen (Dmax) was in the range of 51 to 70%.
With `Cc1ncsc1-c1ccc([C@H](C)NC(=O)[C@@H]2C[C@@H](O)CN2C(=O)[C@@H](NC(=O)COCCN2CCN(c3ccc(C(=O)N[C@H]4C[C@@H](Oc5ccc(C#N)c(Cl)c5)C4(C)C)cn3)CC2)C(C)(C)C)cc1` [Example 850, N-((1S,3R)-3-(3-chloro-4-cyanophenoxy)-2,2-dimethylcyclobutyl)-6-(4-(2-(2-(((S)-1-((2S, 4R)-4-hydroxy-2-(((S)-1-(4-(4-methylthiazol-5-yl)phenyl)ethyl)carbamoyl)pyrrolidin-1-yl)-3,3-dimethyl-1-oxobutan-2-yl)amino)-2-oxoethoxy)ethyl)piperazin-1-yl) nicotinamide], under “VCaP cells, Table 36”, the DC50 is under 0.05 µM and the greatest degradation seen (Dmax) is 51 to 70%.
Turning to `Cc1ncsc1-c1ccc([C@H](C)NC(=O)[C@@H]2C[C@@H](O)CN2C(=O)[C@@H](NC(=O)CC2(CN3CCN(c4ccc(C(=O)N[C@H]5C(C)(C)[C@H](Oc6ccc(C#N)c(Cl)c6)C5(C)C)cn4)CC3)COC2)C(C)(C)C)cc1` [Example 851, N-((1r,3r)-3-(3-chloro-4-cyanophenoxy)-2,2,4,4-tetramethylcyclobutyl)-6-(4-((3-(2-(((S)-1-((2S,4R)-4-hydroxy-2-(((S)-1-(4-(4-methylthiazol-5-yl)phenyl)ethyl)carbamoyl)pyrrolidin-1-yl)-3,3-dimethyl-1-oxobutan-2-yl)amino)-2-oxoethyl)oxetan-3-yl)methyl)piperazin-1-yl)nicotinamide], under “VCaP cells, Table 36”, the DC50 is under 0.05 µM and the Dmax lay in the range of 26 to 50%.
Take `CC(=O)O[C@@H]1C[C@@H](C(=O)N[C@@H](C)c2ccc(-c3scnc3C)cc2)N(C(=O)[C@H](C(C)C)N2Cc3cc(OCCN4CCN(c5ccc(C(=O)N[C@H]6C(C)(C)[C@H](Oc7ccc(C#N)c(Cl)c7)C6(C)C)cn5)CC4)ccc3C2=O)C1` [Example 852, (3R,5S)-1-((S)-2-(5-(2-(4-(5-(((1r,3r)-3-(3-chloro-4-cyanophenoxy)-2,2,4,4-tetramethylcyclobutyl)carbamoyl)pyridin-2-yl)piperazin-1-yl)ethoxy)-1-oxoisoindolin-2-yl)-3-methylbutanoyl)-5-(((S)-1-(4-(4-methylthiazol-5-yl)phenyl)ethyl)carbamoyl)pyrrolidin-3-yl acetate]: the Dmax lay in the range of 51 to 70%. Moreover, the DC50 (VCaP cells, Table 36) is under 0.05 µM.
Take `Cc1ncsc1-c1ccc([C@H](C)NC(=O)[C@@H]2C[C@@H](O)CN2C(=O)[C@@H](NC(=O)CN2CCN(CC3CCN(c4ccc(C(=O)N[C@H]5C(C)(C)[C@H](Oc6ccc(C#N)c(Cl)c6)C5(C)C)cn4)CC3)CC2)C(C)(C)C)cc1` [Example 853, N-((1r,3r)-3-(3-chloro-4-cyanophenoxy)-2,2,4,4-tetramethylcyclobutyl)-6-(4-((4-(2-(((S)-1-((2S,4R)-4-hydroxy-2-(((S)-1-(4-(4-methylthiazol-5-yl)phenyl)ethyl)carbamoyl)pyrrolidin-1-yl)-3,3-dimethyl-1-oxobutan-2-yl)amino)-2-oxoethyl)piperazin-1-yl)methyl)piperidin-1-yl) nicotinamide]: the Dmax was over 71%. Also, the DC50 (VCaP cells, Table 36) is under 0.05 µM.

In general, DC50 refers to the concentration at which degradation of the target reaches its halfway point. Broadly, the Dmax is the largest share of the target that was removed.
